Literature values as cited in patent US5883123A, “Butyrate prodrugs derived from lactic acid” (Vertex Pharmaceuticals, Inc., priority 1995, dated 1999).

Experiments:
[1] = system: leukemia patients
[2] = system: Cultured Erythroleukemic Cells; conditions: in vitro
[3] = system: tumor; conditions: mice

Structure (SMILES)	effects in leukemia patients, by inducing cell differentiation [1]	cell differentiation [2]	anti-tumor and anti-leukemia effects [3]
CCCC(=O)O [butyric acid]	promising effects in leukemia patients	induces cell differentiation in vitro	
CCCC(=O)O [arginine butyrate]			anti-tumor and anti-leukemia effects in mice
